In this assay the target is T1, Cys12 of the KRAS 4B G12C protein (Homo sapiens, UniProt P01116, G12C).
T1 construct: This protein contained 188 amino acids in total, including an N-terminal 6-Histidine tag; made in house; host or cells: E. coli BL21
The assay is described as follows: In vitro covalent adduct formation (CAF) assay, LC-MS intact mass. The class given is binding. Conditions: 10 uM compound, 60 min. An outline of the steps: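 GDP-loaded (>95%) His-TEV-tagged KRAS 4B G12C (residues 1–169), 5 μM in TBS pH 7.4, incubated with 10 μM compound (4% DMSO) at 22° C for one hour. Intact-protein LC-MS gave free:adduct ratios, reported as percent protein modified; duplicate runs.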
In the case of `[2H]C([2H])=C([2H])C(=O)N1C[C@H](C)N(c2nc(=O)n3c4c(c(-c5cc(Cl)c(F)cc5F)c(C(F)(F)F)cc24)SCC2(COC2)C3)C[C@H]1C` (atropisomer, axis not shown) [Example 1433, (S)-8′-((2S,5R)-4-(Acryloyl-d3)-2,5-dimethylpiperazin-1-yl)-11′-(5-chloro-2,4-difluorophenyl)-10′-(trifluoromethyl)-2′H,4′H,6′H-spiro[oxetane-3,3′-[1,4]thiazepino[2,3,4-ij]quinazolin]-6′-one], the “% CAF 10 uM @ 60 min” value is on record as 70%.

For the compound `[2H]C([2H])=C([2H])C(=O)N1C[C@H](C)N(c2nc(=O)n3c4c(c(-c5cc(Cl)c(F)cc5F)c(C(F)(F)F)cc24)SCC2(COC2)C3)C[C@H]1C` (atropisomer, axis not shown) [Example 1434, (R)-8′-((2S,5R)-4-(Acryloyl-d3)-2,5-dimethylpiperazin-1-yl)-11′-(5-chloro-2,4-difluorophenyl)-10′-(trifluoromethyl)-2′H,4′H,6′H-spiro[oxetane-3,3′-[1,4]thiazepino[2,3,4-ij]quinazolin]-6′-one], the “% CAF 10 uM @ 60 min” value stood at 82%.

Consider `C=CC(=O)N1[C@H](C)CN(c2nc(=O)n3c4c(c(-c5cc(Cl)c(F)cc5F)c(C(F)(F)F)cc24)SC[C@@H]3CN2CC[C@H](F)C2)C[C@@H]1C` (atropisomer, axis not shown) [Example 1438, (3S,10S)-7-((3S,5R)-4-acryloyl-3,5-dimethylpiperazin-1-yl)-10-(5-chloro-2,4-difluorophenyl)-3-(((S)-3-fluoropyrrolidin-1-yl)methyl)-9-(trifluoromethyl)-2,3-dihydro-5H-[1,4]thiazino[2,3,4-ij]quinazolin-5-one], for which the “% CAF 10 uM @ 60 min” value is reported as 54%.

Regarding `C=CC(=O)N1[C@H](C)CN(c2nc(=O)n3c4c(c(-c5cc(Cl)c(F)cc5F)c(C(F)(F)F)cc24)SC[C@@H]3CN2CC[C@H](F)C2)C[C@@H]1C` (atropisomer, axis not shown) [Example 1439, (3S,10R)-7-((3S,5R)-4-acryloyl-3,5-dimethylpiperazin-1-yl)-10-(5-chloro-2,4-difluorophenyl)-3-(((S)-3-fluoropyrrolidin-1-yl)methyl)-9-(trifluoromethyl)-2,3-dihydro-5H-[1,4]thiazino[2,3,4-ij]quinazolin-5-one], the “% CAF 10 uM @ 60 min” value came to 73%.

For the compound `C=CC(=O)N1[C@H](C)CN(c2nc(=O)n3c4c(c(-c5cc(Cl)c(F)cc5F)c(C(F)(F)F)cc24)SC[C@@H](N2CCCC2)C3)C[C@@H]1C` (atropisomer, axis not shown) [Example 1440, (3S,11S)-8-((3S,5R)-4-acryloyl-3,5-dimethylpiperazin-1-yl)-11-(5-chloro-2,4-difluorophenyl)-3-(pyrrolidin-1-yl) 10-(trifluoromethyl)-3,4-dihydro-[1,4]thiazepino[2,3,4-ij]quinazolin-6-one], the “% CAF 10 uM @ 60 min” value is recorded as 51%.

Take `C=CC(=O)N1[C@H](C)CN(c2nc(=O)n3c4c(c(-c5cc(Cl)c(F)cc5F)c(C(F)(F)F)cc24)SC[C@@H](N2CCCC2)C3)C[C@@H]1C` (atropisomer, axis not shown) [Example 1441, (3S,11R)-8-((3S,5R)-4-acryloyl-3,5-dimethylpiperazin-1-yl)-11-(5-chloro-2,4-difluorophenyl)-3-(pyrrolidin-1-yl) 10-(trifluoromethyl)-3,4-dihydro-2H,6H-[1,4]thiazepino[2,3,4-ij]quinazolin-6-one]: the “% CAF 10 uM @ 60 min” value is reported as 79%.

In the case of `C=CC(=O)N1C[C@H](C)N(c2nc(=O)n3c4c(c(-c5cc(Br)c(F)cc5F)c(C(F)(F)F)cc24)SCC2(COC2)C3)C[C@H]1C` (atropisomer, axis not shown) [Example 1445, (R)-8′-((2S,5R)-4-Acryloyl-2,5-dimethylpiperazin-1-yl)-11′-(5-bromo-2,4-difluorophenyl)-10′-(trifluoromethyl)-2′H,4′H,6′H-spiro[oxetane-3,3′-[1,4]thiazepino[2,3,4-ij]quinazolin]-6′-one], the “% CAF 10 uM @ 60 min” value worked out at 95%.

The values above are taken from patent US20230107642A1 (Erasca, Inc., priority 2020, published 2023).
